Reference: US12071441B2, “10-(di(phenyl)methyl)-4-hydroxy-8,9,9A,10-tetrahydro-7H-pyrrolo[1′,2′:4,5]pyrazino[1,2-b]pyridazine-3,5-dione derivatives and related compounds as inhibitors of the orthomyxovirus replication for treating influenza” (Novartis AG, priority 2018, dated 2024)

Assays:
Assay in all cases: microbe, parasite or virus in culture
Assay type in all cases: cell-based
[1] = system: influenza A virus minigenome (PB2, PB1, PA, NP; luciferase reporter) in 293T cells, RNP_Alaska; settings: HEK-293T, 48 h
[2] = system: influenza A virus minigenome (PB2, PB1, PA, NP; luciferase reporter) in 293T cells, RNP_Hubei; settings: HEK-293T, 48 h
[3] = system: influenza A virus minigenome (PB2, PB1, PA, NP; luciferase reporter) in 293T cells, RNP_CAL; settings: HEK-293T, 48 h, read-out: RNP_CAL_EC50

SMILES	EC50 [1]	EC50 [2]	EC50 [3]
O=C1c2c(O)c(=O)cnn2[C@@H]([C@@H](c2ccc(F)cc2)c2cccc(C(F)(F)F)c2)[C@H]2CCCN12 [Example 1, (9aR,10S)-10-((S)-(4-fluorophenyl)(3-(trifluoromethyl)phenyl)methyl)-4-hydroxy-8,9,9a,10-tetrahydro-7H-pyrrolo[1′,2′:4,5]pyrazino[1,2-b]pyridazine-3,5-dione]	< 100 nM	< 100 nM	< 100 nM
O=C1c2c(O)c(=O)cnn2[C@@H]([C@@H](c2ccc(F)cc2)c2ccc(C(F)(F)F)cc2)[C@H]2CCCN12 [Example 2, (9aR,10S)-10-((R)-(4-fluorophenyl)(4-(trifluoromethyl)phenyl)methyl)-4-hydroxy-8,9,9a,10-tetrahydro-7H-pyrrolo[1′,2′:4,5]pyrazino[1,2-b]pyridazine-3,5-dione]	100 to 1000 nM	100 to 1000 nM	100 to 1000 nM
O=C1c2c(O)c(=O)cnn2[C@@H]([C@H](c2cccc(C(F)(F)F)c2)c2cccc(F)c2F)[C@H]2CCCN12 [Example 3, (9aR,10S)-10-((R)-(2,3-difluorophenyl)(3-(trifluoromethyl)phenyl)methyl)-4-hydroxy-8,9,9a,10-tetrahydro-7H-pyrrolo[1′,2′:4,5]pyrazino[1,2-b]pyridazine-3,5-dione]	< 100 nM	< 100 nM	< 100 nM
O=C1c2c(O)c(=O)cnn2[C@@H]([C@@H](c2ccc(F)cc2)c2cccc(OC(F)(F)F)c2)[C@H]2CCCN12 [Example 4, (9aR,10S)-10-((S)-(4-fluorophenyl)(3-(trifluoromethoxy)phenyl)methyl)-4-hydroxy-8,9,9a,10-tetrahydro-7H-pyrrolo[1′,2′:4,5]pyrazino[1,2-b]pyridazine-3,5-dione]	100 to 1000 nM	< 100 nM	< 100 nM
O=C1c2c(O)c(=O)cnn2[C@@H]([C@@H](c2ccc(F)cc2)c2ccc(OC(F)(F)F)cc2)[C@H]2CCCN12 [Example 5, (9aR,10S)-10-((R)-(4-fluorophenyl)(4-(trifluoromethoxy)phenyl)methyl)-4-hydroxy-8,9,9a,10-tetrahydro-7H-pyrrolo[1′,2′:4,5]pyrazino[1,2-b]pyridazine-3,5-dione]	100 to 1000 nM	100 to 1000 nM	100 to 1000 nM
COc1c2n(ncc1=O)[C@@H]([C@H](c1ccccc1)c1cccc(F)c1F)[C@H]1CCCN1C2=O [Example 38, (9aR,10S)-10-((R)-(2,3-difluorophenyl)(phenyl)methyl)-4-methoxy-8,9,9a,10-tetrahydro-7H-pyrrolo[1′,2′:4,5]pyrazino[1,2-b]pyridazine-3,5-dione]	≥ 1000 nM	≥ 1000 nM	
COC(C)(C)C(=O)OCOc1c2n(ncc1=O)[C@@H]([C@H](c1ccccc1)c1cccc(F)c1F)[C@H]1CCCN1C2=O [Example 41, (((9aR,10S)-10-((R)-(2,3-difluorophenyl)(phenyl)methyl)-3,5-dioxo-3,5,8,9,9a,10-hexahydro-7H-pyrrolo[1′,2′:4,5]pyrazino[1,2-b]pyridazin-4-yl)oxy)methyl 2-methoxy-2-methylpropanoate]	< 100 nM	< 100 nM	
COCCOC(=O)OCOc1c2n(ncc1=O)[C@@H]([C@H](c1ccccc1)c1cccc(F)c1F)[C@H]1CCCN1C2=O [Example 46, (((9aR,10S)-10-((R)-(2,3-difluorophenyl)(phenyl)methyl)-3,5-dioxo-3,5,8,9,9a,10-hexahydro-7H-pyrrolo[1′,2′:4,5]pyrazino[1,2-b]pyridazin-4-yl)oxy)methyl (2-methoxyethyl) carbonate]	≥ 1000 nM	≥ 1000 nM	
CCN(C)C(=O)Oc1c2n(ncc1=O)[C@@H]([C@H](c1ccccc1)c1cccc(F)c1F)[C@H]1CCCN1C2=O [Example 47, (9aR,10S)-10-((R)-(2,3-difluorophenyl)(phenyl)methyl)-3,5-dioxo-3,5,8,9,9a,10-hexahydro-7H-pyrrolo[1′,2′:4,5]pyrazino[1,2-b]pyridazin-4-yl ethyl(methyl)carbamate]	≥ 1000 nM	≥ 1000 nM	
COC(=O)Oc1c2n(ncc1=O)[C@@H]([C@H](c1ccccc1)c1cccc(F)c1F)[C@H]1CCCN1C2=O [Example 54, (9aR,10S)-10-((R)-(2,3-difluorophenyl)(phenyl)methyl)-3,5-dioxo-3,5,8,9,9a,10-hexahydro-7H-pyrrolo[1′,2′:4,5]pyrazino[1,2-b]pyridazin-4-yl methyl carbonate]	< 100 nM	< 100 nM	
COCCC(=O)OCOc1c2n(ncc1=O)[C@@H]([C@H](c1ccccc1)c1cccc(F)c1F)[C@H]1CCCN1C2=O [Example 64, (((9aR,10S)-10-((R)-(2,3-difluorophenyl)(phenyl)methyl)-3,5-dioxo-3,5,8,9,9a,10-hexahydro-7H-pyrrolo[1′,2′:4,5]pyrazino[1,2-b]pyridazin-4-yl)oxy)methyl 3-methoxypropanoate]	≥ 1000 nM	≥ 1000 nM	
O=C(Oc1c2n(ncc1=O)[C@@H]([C@H](c1ccccc1)c1cccc(F)c1F)[C@H]1CCCN1C2=O)N1CCC(N2CCCCC2)CC1 [Example 65, (9aR,10S)-10-((R)-(2,3-difluorophenyl)(phenyl)methyl)-3,5-dioxo-3,5,8,9,9a,10-hexahydro-7H-pyrrolo[1′,2′:4,5]pyrazino[1,2-b]pyridazin-4-yl [1,4′-bipiperidine]-1′-carboxylate]	≥ 1000 nM	≥ 1000 nM	
O=C(Oc1c2n(ncc1=O)[C@@H]([C@H](c1ccccc1)c1cccc(F)c1F)[C@H]1CCCN1C2=O)N1CCOCC1 [Example 66, (9aR,10S)-10-((R)-(2,3-difluorophenyl)(phenyl)methyl)-3,5-dioxo-3,5,8,9,9a,10-hexahydro-7H-pyrrolo[1′,2′:4,5]pyrazino[1,2-b]pyridazin-4-yl morpholine-4-carboxylate]	≥ 1000 nM	≥ 1000 nM	
COc1c2n(ncc1=O)[C@@H]([C@H](c1ccc(F)cc1)c1cccc(F)c1F)[C@H]1CCCN1C2=O [Example 81, (9aR,10S)-10-((R)-(2,3-difluorophenyl)(4-fluorophenyl)methyl)-4-methoxy-8,9,9a,10-tetrahydro-7H-pyrrolo[1′,2′:4,5]pyrazino[1,2-b]pyridazine-3,5-dione]	≥ 1000 nM	≥ 1000 nM	
CN(C)C(=O)Oc1c2n(ncc1=O)[C@@H]([C@H](c1ccc(F)cc1)c1cccc(F)c1F)[C@H]1CCCN1C2=O [Example 87, (9aR,10S)-10-((R)-(2,3-difluorophenyl)(4-fluorophenyl)methyl)-3,5-dioxo-3,5,8,9,9a,10-hexahydro-7H-pyrrolo[1′,2′:4,5]pyrazino[1,2-b]pyridazin-4-yl dimethylcarbamate]	≥ 1000 nM	≥ 1000 nM	
CC(C)OC(=O)OCOc1c2n(ncc1=O)[C@@H]([C@H](c1ccc(F)cc1)c1cccc(F)c1F)[C@H]1CCCN1C2=O [Example 89, (((9aR,10S)-10-((R)-(2,3-difluorophenyl)(4-fluorophenyl)methyl)-3,5-dioxo-3,5,8,9,9a,10-hexahydro-7H-pyrrolo[1′,2′:4,5]pyrazino[1,2-b]pyridazin-4-yl)oxy)methyl isopropyl carbonate]	< 100 nM	< 100 nM	
COC(C)(C)C(=O)Oc1c2n(ncc1=O)[C@@H]([C@H](c1ccc(F)cc1)c1cccc(F)c1F)[C@H]1CCCN1C2=O [Example 90, (9aR,10S)-10-((R)-(2,3-difluorophenyl)(4-fluorophenyl)methyl)-3,5-dioxo-3,5,8,9,9a,10-hexahydro-7H-pyrrolo[1′,2′:4,5]pyrazino[1,2-b]pyridazin-4-yl 2-methoxy-2-methylpropanoate]	< 100 nM	< 100 nM	
CC(C)(C)OC(=O)OCOc1c2n(ncc1=O)[C@@H]([C@H](c1ccc(F)cc1)c1cccc(F)c1F)[C@H]1CCCN1C2=O [Example 91, tert-butyl ((((9aR,10S)-10-((R)-(2,3-difluorophenyl)(4-fluorophenyl)methyl)-3,5-dioxo-3,5,8,9,9a,10-hexahydro-7H-pyrrolo[1′,2′:4,5]pyrazino[1,2-b]pyridazin-4-yl)oxy)methyl) carbonate]	< 100 nM	< 100 nM	
CN(C)C(=O)OCOc1c2n(ncc1=O)[C@@H]([C@H](c1cccc(F)c1)c1cccc(F)c1F)[C@H]1CCCN1C2=O [Example 101, (((9aR,10S)-10-((R)-(2,3-difluorophenyl)(3-fluorophenyl)methyl)-3,5-dioxo-3,5,8,9,9a,10-hexahydro-7H-pyrrolo[1′,2′:4,5]pyrazino[1,2-b]pyridazin-4-yl)oxy)methyl dimethylcarbamate]	≥ 1000 nM	100 to 1000 nM	
CC(C)OC(=O)Oc1c2n(ncc1=O)[C@@H]([C@H](c1cccc(F)c1)c1cccc(F)c1F)[C@H]1CCCN1C2=O [Example 103, (9aR,10S)-10-((R)-(2,3-difluorophenyl)(3-fluorophenyl)methyl)-3,5-dioxo-3,5,8,9,9a,10-hexahydro-7H-pyrrolo[1′,2′:4,5]pyrazino[1,2-b]pyridazin-4-yl isopropyl carbonate]	< 100 nM	< 100 nM	
CC(C)(C)C(=O)OCOc1c2n(ncc1=O)[C@@H]([C@H](c1cccc(F)c1)c1cccc(F)c1F)[C@H]1CCCN1C2=O [Example 109, (((9aR,10S)-10-((R)-(2,3-difluorophenyl)(3-fluorophenyl)methyl)-3,5-dioxo-3,5,8,9,9a,10-hexahydro-7H-pyrrolo[1′,2′:4,5]pyrazino[1,2-b]pyridazin-4-yl)oxy)methyl pivalate]	< 100 nM	< 100 nM	
CC(C)(C)C(=O)Oc1c2n(ncc1=O)[C@@H]([C@H](c1cccc(F)c1)c1cccc(F)c1F)[C@H]1CCCN1C2=O [Example 111, (9aR,10S)-10-((R)-(2,3-difluorophenyl)(3-fluorophenyl)methyl)-3,5-dioxo-3,5,8,9,9a,10-hexahydro-7H-pyrrolo[1′,2′:4,5]pyrazino[1,2-b]pyridazin-4-yl pivalate]	< 100 nM	< 100 nM	
